Results: patent US20090029970A1, “PAIN REMEDY CONTAINING ROCK INHIBITOR” (Astellas Pharma Inc., priority 2005, published 2009)

What was measured:
[1] = tested on: rat MIA-induced osteoarthritis model; assay: Analgesic test by assessment of hindlimb weight distribution in monoiodoacetate (MIA)-induced osteoarthritis model; format: in vivo; settings: for ED50: Rattus norvegicus, read-out: Difference in weight between the right and left hindlimbs of rats: ED50
Method: This disease model was prepared according to the description in Toxicol Pathol 31(6), 619-624 (2003). Female SD rats (6-7 weeks old, Charles River Laboratories Japan, Inc.) were anesthetized with halothane (Takeda Pharmaceutical Company, Limited) and given a single intra-articular injection of 1 mg of monosodium iodoacetate (MIA; Sigma, St. Louis) through the infrapatellar ligament of the right knee. MIA was dissolved with physiological saline and administered in a volume of 50 μL using a 27-gauge, 0.5-inch needle. Three weeks after the injection of MIA (establishment of pathology of osteoarthritis), single oral administration of a ROCK inhibitor or diclofenac was given and the weights of both hindlimbs of the rats were determined using an incapacitance tester (Linton Instrumentation, Norfork, UK) 2 hours after administration of the compounds to obtain ED50 values (Table 1).

[2] = tested on: bradykinin-induced joint pain model; assay: Pain alleviation effect on bradykinin-induced joint pain model; format: in vivo, rat; settings: for pain score (0-4): 30 min before bradykinin, decreased from 2.6
Method: Preparation of the Joint Pain Model and Evaluation of a Level of Pain were conducted based on the description in Folia pharmacol. japon. 92, 17-27 (1988). Female SD rats (6-7 weeks old, Charles River Laboratories Japan, Inc.) were anesthetized with halothane (Takeda Pharmaceutical Company, Limited) and given a single intra-articular injection of a saline solution of Wf536 or Compound 2 into the knee joint cavity of the hindlimb using a 27-gauge, 0.5-inch needle at a dose of 0.03 μg/site, 0.3 μg/site or 3 μg/site. Thirty minutes after administration of the drug, a physiological saline solution of bradykinin was injected into the knee joint cavity of the hindlimb (3 μM/site/50 μl), then the response to pain of the rat after administration of bradykinin was observed. The level of pain was scored as five grade point (0-4) as follows: 0: no lameness to lameness for 10 seconds; 1: lameness for 10 to 30 seconds; 2: lift of the limb within 10 seconds or lameness for 31 or more seconds; 3: three-legged gait within 10 seconds followed by lameness; and 4: three-legged gait for 10 or more seconds followed by lameness. About 10 rat models were used in each experimental group. It was confirmed that administration of bradykinin leads to response to pain scored as about 3.

[3] = tested on: MIA-induced osteoarthritis model; assay: Cartilage damage score of the distal end of the tibia in MIA-induced osteoarthritis model; format: in vivo, rat; settings: for score of morphological change of the distal end of the tibia (0-4): three weeks after injection, decreased from 3
Method: This disease model was prepared according to the description in Toxicol Pathol 31 (6), 619-624 (2003). Female SD rats (6-7 weeks old, Charles River Laboratories Japan, Inc.) were anesthetized with halothane (Takeda Pharmaceutical Company, Limited) and given a single intra-articular injection of 1 mg of monosodium iodoacetate (MIA; Sigma, St. Louis) through the intrapatellar ligament of the right knee. MIA was dissolved with physiological saline and administered in a volume of 50 μL using a 27-gauge, 0.5-inch needle. Three weeks after the injection, a tibia was isolated and morphological change of the distal end of the tibia was scored (0-4; FIG. 1). About 8 rats were used for each group. Three weeks after the injection of MIA, cartilage damage of about score 3 was confirmed. Wf536 or Compound 2 was injected intra-articularly at a concentration of 0.03 μg/site, 0.3 μg/site or 3 μg/site 2 times a week (every 2 to 3 days) from the day of administration of MIA. […] 0: no damage; 1: damage on the surface of cartilage; 2: cartilage degradation; 3: cartilage degradation and subchondral bone damage; 4: cartilage degradation, subchondral bone damage and spur formation.

[4] = female SD rats, single oral administration three weeks after MIA injection, measured 2 hours after administration

Compound: NC(=O)c1cc(F)c(N[C@H]2CC[C@H](N)CC2)cc1F [Compound 1, 4-[(trans-4-aminocyclohexyl)amino]-2,5-difluorobenzamide]
- ED50 [1, 4]: < 10 mg/kg

Compound: NC(=O)c1cc(Cl)c(N[C@H]2CC[C@H](N)CC2)cc1F [Compound 2, 4-[(trans-4-aminocyclohexyl)amino]-5-chloro-2-fluorobenzamide]
- ED50 [1, 4]: < 10 mg/kg
- pain score (0-4) ([2]; single intra-articular injection 0.3 μg/site): 1.1
- score of morphological change of the distal end of the tibia (0-4) ([3]; intra-articular 0.3 μg/site 2 times a week from the day of MIA): 2.3

Compound: CC(C)(N)c1ccc(-c2ccc3[nH]ncc3c2)cc1.Cl.Cl [Compound 3, 2-[4-(1H-indazol-5-yl)phenyl]-2-propanamine dihydrochloride]
- ED50 [1, 4]: < 10 mg/kg

Compound: O=C(O)Cc1ccccc1Nc1c(Cl)cccc1Cl [Diclofenac]
- ED50 [1, 4]: > 30 mg/kg
- efficacy on pain (in words) ([1]; single dose given after establishment of the disease in the rat MIA-induced osteoarthritis model): ineffective

Compound: Cl.O=S(=O)(c1cccc2cnccc12)N1CCCNCC1 [Fasudil, 5-(hexahydro-1H-1,4-diazepin-1-ylsulfonyl)isoquinoline hydrochloride]
- ED50 [1, 4]: < 10 mg/kg

Compound: C[C@@H](N)c1ccc(C(=O)Nc2ccncc2)cc1.Cl [Wf536, 4-[(1R)-1-aminoethyl]-N-(4-piridyl)benzamide monohydrochloride]
- Difference in weight between the right and left hindlimbs of rats: ED50 [1, 4]: <30 mg/kg
- response to pain (in words) ([2]; intra-articular 0.03, 0.3 or 3 μg/site): dose-dependently improved the response to pain
- pain score (0-4) ([2]; single intra-articular injection 3 μg/site): 1.2
- score of morphological change of the distal end of the tibia (0-4) ([3]; intra-articular 3 μg/site 2 times a week from the day of MIA): 2.2
- MIA-induced cartilage damage (in words) ([3]; intra-articular 0.03, 0.3 or 3 μg/site 2 times a week, three weeks): dose-dependently improved the MIA-induced cartilage damage
